Laboratory results reported in ChEMBL document CHEMBL1138660, “Contribution of ionization and lipophilicity to drug binding to albumin: a preliminary step toward biodistribution prediction” (J Med Chem, 2004).

Experiment: not given
Settings: human, plasma

With CCCC(=O)Nc1ccc(OCC(O)CNC(C)C)c(C(C)=O)c1 (centres undefined) [ACEBUTOLOL] as the compound, how does the “B(DPB)” value read?
Its value is 0%.

With NS(=O)(=O)c1cc(C(=O)O)c(NCc2ccco2)cc1Cl [FUROSEMIDE] as the compound, how does the “B(DPB)” value read?
Its value is 87.2%.

Which “B(DPB)” value does the source give for CN(Cc1cnc2nc(N)nc(N)c2n1)c1ccc(C(=O)N[C@@H](CCC(=O)O)C(=O)O)cc1 [METHOTREXATE] here?
The value was 49.9%.

Which “B(DPB)” value does the source give for COc1ccc2cc([C@H](C)C(=O)O)ccc2c1 [NAPROXEN] here?
Its value is greater than 95%.

With COC(=O)C1=C(C)NC(C)=C(C(=O)OCCN(C)Cc2ccccc2)C1c1cccc([N+](=O)[O-])c1 (centres undefined) [NICARDIPINE] as the compound, how does the “B(DPB)” value read?
Its value is 93.4%.

With CNC(=C[N+](=O)[O-])NCCSCc1ccc(CN(C)C)o1 [RANITIDINE] as the compound, how does the “B(DPB)” value read?
Its value is 3.9%.

With CN1C(C(=O)Nc2ccccn2)=C(O)c2sccc2S1(=O)=O [TENOXICAM] as the compound, how does the “B(DPB)” value read?
Its value is 89.6%.

Experiment: physchem
Settings: not given

Which pKa does the source give for COC(=O)C1=C(C)NC(C)=C(C(=O)OCCN(C)Cc2ccccc2)C1c1cccc([N+](=O)[O-])c1 (centres undefined) [NICARDIPINE] here?
Its pKa is 7.17.

For CNC(=C[N+](=O)[O-])NCCSCc1ccc(CN(C)C)o1 [RANITIDINE], which pKa is on record?
The pKa was 8.48.

Which pKa does the source give for CN1C(C(=O)Nc2ccccn2)=C(O)c2sccc2S1(=O)=O [TENOXICAM] here?
Its pKa is 4.95.

Experiment: physchem
Settings: buffer, pH 7.4
Description: Distribution coeeficient for the compound at pH7.4 (Log D7.4)

For CN(Cc1cnc2nc(N)nc(N)c2n1)c1ccc(C(=O)N[C@@H](CCC(=O)O)C(=O)O)cc1 [METHOTREXATE], which logD is on record?
Its logD is -2.52.

Which logD does the source give for COC(=O)C1=C(C)NC(C)=C(C(=O)OCCN(C)Cc2ccccc2)C1c1cccc([N+](=O)[O-])c1 (centres undefined) [NICARDIPINE] here?
Its logD is 4.25.

Which logD does the source give for CNC(=C[N+](=O)[O-])NCCSCc1ccc(CN(C)C)o1 [RANITIDINE] here?
Its logD is -0.48.

With CN1C(C(=O)Nc2ccccn2)=C(O)c2sccc2S1(=O)=O [TENOXICAM] as the compound, how does the logD read?
The logD was -0.32.
